These results are taken from patent US20040109832A1, “Di-substituted resorcinols as skin lightening agents” (Unilever Home & Personal Care USA, Division Of Conopco, Inc., priority 2002, published 2004).

The structures appear in SMILES notation.

For this experiment, the system named is T1, mushroom tyrosinase.
T1 construct: mushroom tyrosinase (Sigma T-7755)
The experiment can be described thus: Mushroom Tyrosinase Assay. The class given is biochemical. The conditions noted are these: for Percent of Control: slope ΔAbs 475 nm/min vs ethanol control; for IC50: L-DOPA substrate, absorbency at 475 nm, pH 7.0, read-out: IC50 (skin lightener concentration that results in 50% tyrosinase inhibition relative to the control); for skin lightening effectiveness (tyrosinase inhibition), in words: conclusion from Tables 8 and 9. The procedure:
Mushroom tyrosinase inhibition is indicative of reduction in melanin synthesis, thereby showing skin lightening effect. […] Following an initial measurement of background absorbency at 475-nm, 20 microliters of mushroom tyrosinase (Sigma T-7755; 6050 units/ml) was added and incubated at room temperature. Absorbency is read at 475-nm over the following time points: 0, 2, 4, and 6.5 minutes. The data is plotted as 475-nm absorbency vs. time (minutes) and the slope of the line is calculated (ΔAbs 475 nm/ min).

The mark [1] stands for this setting: Table 9, Concentration 1 micro M.
Where [2] appears, read: Table 9, Concentration 10 micro M.
The mark [3] stands for this setting: Table 9, Concentration 50 micro M.
Where [4] appears, read: Table 9, Concentration 100 micro M.

As for `CC(C)c1ccc(O)cc1O` [4-Isopropyl Resorcinol, 4-isopropyl resorcinol], the IC50 was around 50 nM and the “skin lightening effectiveness (tyrosinase inhibition), in words” value is on record as “effective skin lightening compounds”. The “Percent of Control” value (Concentration 0.0156 micro M) is on record as 80.6% of Control. For the same compound, the “Percent of Control” value (Concentration 0.0312 micro M) was 60.9% of Control. Besides, the “Percent of Control” value (Concentration 0.0625 micro M) is listed as 46.6% of Control. Also, the “Percent of Control” value (Concentration 0.125 micro M) is 35.8% of Control. Also, the “Percent of Control” value (Concentration 0.25 micro M) is 30.4% of Control. For the setting “Concentration 0.5 micro M”, the “Percent of Control” value is reported as 28.7% of Control. For the setting “Concentration 1 micro M”, the “Percent of Control” value was 26.9% of Control. Moreover, the “Percent of Control” value (Concentration 10 micro M) was 28.7% of Control. The “Percent of Control” value (Concentration 50 micro M) was 28.7% of Control. For the same compound, where the note is “Concentration 100 micro M”, the “Percent of Control” value is 30.4% of Control. The “% of Control (Melanin Synthesis)” value under setting [1] is given as 27 % of Control. Moreover, the “% of Control (Melanin Synthesis)” value under setting [2] is 29 % of Control. In addition, the “% of Control (Melanin Synthesis)” value under setting [3] is 29 % of Control. For the same compound, under setting [4], the “% of Control (Melanin Synthesis)” value is 30 % of Control.
For the compound `Cc1cc(O)cc(O)c1C` [4,5-di-Methyl Resorcinol, 4,5-dimethyl resorcinol], the “skin lightening effectiveness (tyrosinase inhibition), in words” value is on record as “not as effective”. The “% of Control (Melanin Synthesis)” value under setting [1] is reported as 95 % of Control. In addition, the “% of Control (Melanin Synthesis)” value under setting [2] is on record as 51 % of Control. Besides, the “% of Control (Melanin Synthesis)” value under setting [3] is 35 % of Control. In addition, the “% of Control (Melanin Synthesis)” value under setting [4] is 15 % of Control.
Take `CC(C)c1cc(C(C)C)c(O)cc1O` [4,6-Diisopropyl Resorcinol, 4,6-di-isopropyl resorcinol]: the IC50 stood at 750 nM and the “skin lightening effectiveness (tyrosinase inhibition), in words” value is reported as “comparable to 4-Ethyl Resorcinol”. For the same compound, where the note is “Concentration 0.0156 micro M”, the “Percent of Control” value is listed as 96.7% of Control. Besides, the “Percent of Control” value (Concentration 0.0312 micro M) is listed as 94.9% of Control. Moreover, under “Concentration 0.0625 micro M”, the “Percent of Control” value is listed as 93.1% of Control. Further, the “Percent of Control” value (Concentration 0.125 micro M) was 86.0% of Control. Also, for the setting “Concentration 0.25 micro M”, the “Percent of Control” value was 75.2% of Control. Moreover, for the setting “Concentration 0.5 micro M”, the “Percent of Control” value is 60.9% of Control. The “Percent of Control” value (Concentration 1 micro M) is recorded as 48.4% of Control. Moreover, the “Percent of Control” value (Concentration 10 micro M) was 28.7% of Control. In addition, the “Percent of Control” value (Concentration 50 micro M) was 34.0% of Control. Moreover, under “Concentration 100 micro M”, the “Percent of Control” value was 39.4% of Control. The “% of Control (Melanin Synthesis)” value under setting [1] is 48 % of Control. For the same compound, the “% of Control (Melanin Synthesis)” value under setting [2] is 29 % of Control. Also, under setting [3], the “% of Control (Melanin Synthesis)” value is given as 34 % of Control. Also, under setting [4], the “% of Control (Melanin Synthesis)” value is reported as 39 % of Control. For the same compound, the “skin lightening effectiveness (tyrosinase inhibition), in words” value (listed as 4,6-di-Isopropyl resorcinols) is on record as “effective skin lightening compounds”.
As for `CCc1ccc(O)cc1O` [4-Ethyl Resorcinol, 4-ethyl resorcinol], the IC50 worked out at 350 nM. The “Percent of Control” value (Concentration 0.0156 micro M) is listed as 86% of Control. For the same compound, under “Concentration 0.0312 micro M”, the “Percent of Control” value is 82% of Control. In addition, the “Percent of Control” value (Concentration 0.0625 micro M) is listed as 72% of Control. Besides, the “Percent of Control” value (Concentration 0.125 micro M) is on record as 64% of Control. Further, where the note is “Concentration 0.25 micro M”, the “Percent of Control” value was 57% of Control. Besides, the “Percent of Control” value (Concentration 0.5 micro M) was 43% of Control. In addition, the “Percent of Control” value (Concentration 1 micro M) is reported as 32% of Control. Further, for the setting “Concentration 10 micro M”, the “Percent of Control” value is 25% of Control. Moreover, the “Percent of Control” value (Concentration 50 micro M) is given as 21% of Control. Moreover, the “Percent of Control” value (Concentration 100 micro M) is 18% of Control. The “% of Control (Melanin Synthesis)” value under setting [1] is listed as 32 % of Control. In addition, under setting [2], the “% of Control (Melanin Synthesis)” value was 25 % of Control. Under setting [3], the “% of Control (Melanin Synthesis)” value is given as 21 % of Control. Also, the “% of Control (Melanin Synthesis)” value under setting [4] is on record as 18 % of Control.
For the compound `Oc1cccc(O)c1` [Resorcinol, resorcinol], the “skin lightening effectiveness (tyrosinase inhibition), in words” value is “no activity”. Also, under setting [1], the “% of Control (Melanin Synthesis)” value is listed as 98 % of Control. Further, the “% of Control (Melanin Synthesis)” value under setting [2] is 98 % of Control. The “% of Control (Melanin Synthesis)” value under setting [3] is reported as 100 % of Control. In addition, the “% of Control (Melanin Synthesis)” value under setting [4] was 100 % of Control.
